# Source: ChEMBL document CHEMBL5230136, “A review: Biologically active 3,4-heterocycle-fused coumarins” (Eur J Med Chem, 2021)
# What was measured:
# Trichophyton rubrum = experiment: Antifungal activity against Trichophyton rubrum assessed as zone of inhibition at 20 mg/ml; format: functional; conditions: read-out: IZ
# Staphylococcus aureus [1] = experiment: Antibacterial activity against Staphylococcus aureus assessed as zone of inhibition at 20 mg/ml; format: functional; conditions: read-out: IZ
# Micrococcus luteus = experiment: Antibacterial activity against Micrococcus luteus assessed as zone of inhibition at 20 mg/ml; format: functional; conditions: read-out: IZ
# Pseudomonas aeruginosa = experiment: Antibacterial activity against Pseudomonas aeruginosa assessed as zone of inhibition at 20 mg/ml; format: functional; conditions: read-out: IZ
# Aspergillus flavus = experiment: Antifungal activity against Aspergillus flavus assessed as zone of inhibition at 20 mg/ml; format: functional; conditions: read-out: IZ
# Bacillus cereus = experiment: Antibacterial activity against Bacillus cereus assessed as zone of inhibition at 20 mg/ml; format: functional; conditions: read-out: IZ
# Serratia marcescens = experiment: Antibacterial activity against Serratia marcescens assessed as zone of inhibition at 20 mg/ml; format: functional; conditions: read-out: IZ
# Scopulariopsis = experiment: Antifungal activity against Scopulariopsis assessed as zone of inhibition at 20 mg/ml; format: functional; conditions: read-out: IZ
# Escherichia coli [2] = experiment: Antibacterial activity against Escherichia coli assessed as zone of inhibition at 20 mg/ml; format: functional; conditions: read-out: IZ
# Fusarium oxysporum = experiment: Antifungal activity against Fusarium oxysporum assessed as zone of inhibition at 20 mg/ml; format: functional; conditions: read-out: IZ
# Candida albicans = experiment: Antifungal activity against Candida albicans assessed as zone of inhibition at 20 mg/ml; format: functional; conditions: read-out: IZ
# Geotrichum candidum = experiment: Antifungal activity against Geotrichum candidum assessed as zone of inhibition at 20 mg/ml; format: functional; conditions: read-out: IZ
# Escherichia coli [3] = experiment: Antibacterial activity against Escherichia coli assessed as zone of inhibition at 100 ug/ml; format: functional; conditions: read-out: IZ
# Staphylococcus aureus [4] = experiment: Antibacterial activity against Staphylococcus aureus assessed as zone of inhibition at 100 ug/ml; format: functional; conditions: read-out: IZ
# Salmonella typhimurium = experiment: Antibacterial activity against Salmonella typhimurium DT104 assessed as zone of inhibition at 100 ug/ml; format: functional, Salmonella enterica subsp. enterica serovar Typhimurium; conditions: Salmonella enterica, read-out: IZ
# Bacillus subtilis = experiment: Antibacterial activity against Bacillus subtilis assessed as zone of inhibition at 100 ug/ml; format: functional; conditions: read-out: IZ
# MCF7 = experiment: Cytotoxicity against human MCF7 cells […] by MTT reduction assay; format: functional, cell-based
# HeLa = experiment: cells; conditions: Homo sapiens
# Description: Cytotoxicity against human HeLa cells at 50 uM by MTT reduction assay
# K562 = experiment: cells; conditions: Homo sapiens
# Description: Cytotoxicity against human K562 cells at 50 uM by MTT reduction assay
# LS180 = experiment: cells; conditions: Homo sapiens
# Description: Cytotoxicity against human LS180 cells at 50 uM by MTT reduction assay
Structure (SMILES),zone of inhibition at 20000 µg/mL (Trichophyton rubrum),zone of inhibition at 20000 µg/mL (Staphylococcus aureus [1]),zone of inhibition at 20000 µg/mL (Micrococcus luteus),zone of inhibition at 20000 µg/mL (Pseudomonas aeruginosa),zone of inhibition at 20000 µg/mL (Aspergillus flavus),zone of inhibition at 20000 µg/mL (Bacillus cereus),zone of inhibition at 20000 µg/mL (Serratia marcescens),zone of inhibition at 20000 µg/mL (Scopulariopsis),zone of inhibition at 20000 µg/mL (Escherichia coli [2]),zone of inhibition at 20000 µg/mL (Fusarium oxysporum),zone of inhibition at 20000 µg/mL (Candida albicans),zone of inhibition at 20000 µg/mL (Geotrichum candidum),zone of inhibition at 100 µg/mL (Escherichia coli [3]),zone of inhibition at 100 µg/mL (Staphylococcus aureus [4]),zone of inhibition at 100 µg/mL (Salmonella typhimurium),zone of inhibition at 100 µg/mL (Bacillus subtilis),IC50 (MCF7),IC50 (HeLa),IC50 (K562),IC50 (LS180)
NNC(=O)c1sc2c(c1N)c(=O)oc1ccccc12,0 mm,10 mm,0 mm,10 mm,10 mm,0 mm,11 mm,13 mm,0 mm,16 mm,14 mm,13 mm,–,–,–,–,–,–,–,–
CCOC(=O)c1sc2c(c1NC(=O)CNc1ccc(S(=O)(=O)NN=N)cc1)c(=O)oc1ccccc12,0 mm,10 mm,0 mm,9 mm,0 mm,0 mm,0 mm,0 mm,9 mm,0 mm,13 mm,0 mm,–,–,–,–,–,–,–,–
CCOC(=O)c1sc2c(c1NC(=O)CN1CCOCC1)c(=O)oc1ccccc12,0 mm,0 mm,0 mm,9 mm,0 mm,0 mm,0 mm,0 mm,0 mm,0 mm,0 mm,0 mm,–,–,–,–,–,–,–,–
O=C(N[C@H](CO)[C@H](O)c1ccc([N+](=O)[O-])cc1)C(Cl)Cl [CHLORAMPHENICOL],36 mm,18 mm,20 mm,18 mm,44 mm,22 mm,20 mm,20 mm,18 mm,28 mm,20 mm,24 mm,–,–,–,–,–,–,–,–
Cc1ccc2c(c1)oc(=O)c1c(-c3cn(-c4ccccc4)nc3-c3ccccc3)cc(-c3ccc(Cl)cc3Cl)nc12,–,–,–,–,–,–,–,–,–,–,–,–,21 mm,16 mm,19 mm,19 mm,–,–,–,–
CCOC(=O)c1sc2c(c1NC(=O)CNc1ccccc1)c(=O)oc1ccccc12,10 mm,0 mm,0 mm,0 mm,12 mm,0 mm,0 mm,10 mm,0 mm,0 mm,13 mm,11 mm,–,–,–,–,–,–,–,–
O=C1CCCc2nc3c(c(-c4ccccc4Cl)c21)c(=O)oc1ccccc13,–,–,–,–,–,–,–,–,–,–,–,–,–,–,–,–,> 100 µM,> 100 µM,> 100 µM,> 100 µM
COc1cccc(-c2c3c(nc4c2c(=O)oc2ccccc24)CCCC3=O)c1,–,–,–,–,–,–,–,–,–,–,–,–,–,–,–,–,> 100 µM,> 100 µM,> 100 µM,> 100 µM
Cc1ccc2c(c1)oc(=O)c1c(-c3cn(-c4ccccc4)nc3-c3ccccc3)cc(-c3c(O)c(Cl)c(O)c(Cl)c3Cl)nc12,–,22 mm,–,–,–,–,–,–,22 mm,–,–,–,22 mm,18 mm,20 mm,22 mm,–,–,–,–
COc1ccccc1-c1c2c(nc3c1c(=O)oc1ccccc13)CCCC2=O,–,–,–,–,–,–,–,–,–,–,–,–,–,–,–,–,> 100 µM,> 100 µM,> 100 µM,> 100 µM
O=C1CCCc2nc3c(c(-c4cccc(Br)c4)c21)c(=O)oc1ccccc13,–,–,–,–,–,–,–,–,–,–,–,–,–,–,–,–,31.4 µM,83.6 µM,38.8 µM,> 100 µM
CC1(C)S[C@@H]2[C@H](NC(=O)Cc3ccccc3)C(=O)N2[C@H]1C(=O)O [PENICILLIN G],–,–,–,–,–,–,–,–,–,–,–,–,22 mm,24 mm,22 mm,24 mm,–,–,–,–
O=C1CCCc2nc3c(c(-c4cccc(Cl)c4)c21)c(=O)oc1ccccc13,–,–,–,–,–,–,–,–,–,–,–,–,–,–,–,–,71.7 µM,> 100 µM,50.7 µM,> 100 µM
Cc1ccc2c(c1)oc(=O)c1c(-c3cn(-c4ccccc4)nc3-c3ccccc3)cc(-c3c(O)cc(C)c(Cl)c3Cl)nc12,–,–,–,–,–,–,–,–,–,–,–,–,8 mm,7 mm,10 mm,14 mm,–,–,–,–
O=C1CCCc2nc3c(c(-c4ccc([N+](=O)[O-])cc4)c21)c(=O)oc1ccccc13,–,–,–,–,–,–,–,–,–,–,–,–,–,–,–,–,> 100 µM,88.2 µM,43.8 µM,> 100 µM
Cc1ccc2c(c1)oc(=O)c1c(-c3cn(-c4ccccc4)nc3-c3ccccc3)cc(-c3c(O)cc(O)cc3Cl)nc12,–,–,–,–,–,–,–,–,–,–,–,–,19 mm,10 mm,12 mm,14 mm,–,–,–,–
